The values below come from US11413360B2, “Dual mode radiotracer and—therapeutics” (priority 2017, dated 2022).

Data set [1] has as its target T1, Human Serum Albumin (Homo sapiens, UniProt P02768). As to the kind of experiment: Literature HSA binding of reference substances (Yamazaki et al.) for HSA-column calibration. As to conditions: logarithmic K of human serum albumin binding. As for the experimental part:
The mobile phase (A: NH4OAc, 50 mM in water, pH 7 and B: isopropanol) was freshly prepared for each experiment and only used for one day. The column was kept at room temperature and each run was stopped after detection of the signal to reduce the acquisition time. All substances were dissolved in a 0.5 mg/ml concentration in 50% 2-propanol and 50% 50 mM pH 6.9 ammonium acetate buffer. […] All nine reference substances (see Table 1) were injected consecutively to establish a non-linear regression with OriginPro 2016G; see FIG. 1.
HSA literature value of human serum albumin binding in [%]; Log K HAS logarithmic K of human serum albumin binding.

The target in data set [2] is T1, Human Serum Albumin. As to conditions: literature value of human serum albumin binding; cited from earlier work.
A further data set deals with LNCaP cells. Put plainly: Internalization of radiolabelled ligands into LNCaP cells. The class given is cell-based. The settings on record: 1 hour, % of reference ligand ([125I]I-BA)KuE. The procedure:
Subsequent to the removal of the culture medium, the cells were washed once with 500 μL DMEM-F12 (5% BSA) and left to equilibrate for at least 15 min at 37° C. in 200 μL DMEM-F12 (5% BSA). Each well was treated with either 25 μL of either DMEM-F12 (5% BSA) or a 100 μM PMPA solution for blockade. […] The experiment was terminated by placing the 24-well plate on ice for 3 min and consecutive removal of the medium. Each well was rinsed with 250 μL HBSS and the fractions from these first two steps combined, representing the amount of free radioligand. Removal of surface bound activity was accomplished by incubation of the cells with 250 μL of ice-cold PMPA (10 μM in PBS) solution for 5 min and rinsed again with another 250 μL of ice-cold PBS. The internalized activity was determined by incubation of the cells in 250 μL 1 M NaOH and the combination with the fraction of a subsequent wash step with 250 μL 1.0 M NaOH. Each experiment (control and blockade) was performed in triplicate. Free, surface bound and internalized activity was quantified in a γ-counter. […] Data were corrected for non-specific internalization and normalized to the specific-internalization observed for the radioiodinated reference compound.

A short description of data set [3]: Octanol-water partition coefficient (log D) of radiolabelled ligands. The data set is classed as physicochemical. The settings on record: n = 6. As for the experimental part:
Approximately 1 MBq of the labelled tracer was dissolved in 1 mL of a 1:1 mixture (by volumes) of phosphate buffered saline (PBS, pH 7.4) and n-octanol in an Eppendorf tube. After vigorous mixing of the suspension for 3 minutes at room temperature, the vial was centrifuged at 15000 g for 3 minutes (Biofuge 15, Heraus Sepatech, Osterode, Germany) and 100 μL aliquots of both layers were measured in a gamma counter. The experiment was repeated at least six times.

The target in another data set is T2, PSMA (Homo sapiens, UniProt Q04609).
T2 construct: endogenous in cells; host or cells: LNCaP cells
T2 sequence (Q04609 whole entry): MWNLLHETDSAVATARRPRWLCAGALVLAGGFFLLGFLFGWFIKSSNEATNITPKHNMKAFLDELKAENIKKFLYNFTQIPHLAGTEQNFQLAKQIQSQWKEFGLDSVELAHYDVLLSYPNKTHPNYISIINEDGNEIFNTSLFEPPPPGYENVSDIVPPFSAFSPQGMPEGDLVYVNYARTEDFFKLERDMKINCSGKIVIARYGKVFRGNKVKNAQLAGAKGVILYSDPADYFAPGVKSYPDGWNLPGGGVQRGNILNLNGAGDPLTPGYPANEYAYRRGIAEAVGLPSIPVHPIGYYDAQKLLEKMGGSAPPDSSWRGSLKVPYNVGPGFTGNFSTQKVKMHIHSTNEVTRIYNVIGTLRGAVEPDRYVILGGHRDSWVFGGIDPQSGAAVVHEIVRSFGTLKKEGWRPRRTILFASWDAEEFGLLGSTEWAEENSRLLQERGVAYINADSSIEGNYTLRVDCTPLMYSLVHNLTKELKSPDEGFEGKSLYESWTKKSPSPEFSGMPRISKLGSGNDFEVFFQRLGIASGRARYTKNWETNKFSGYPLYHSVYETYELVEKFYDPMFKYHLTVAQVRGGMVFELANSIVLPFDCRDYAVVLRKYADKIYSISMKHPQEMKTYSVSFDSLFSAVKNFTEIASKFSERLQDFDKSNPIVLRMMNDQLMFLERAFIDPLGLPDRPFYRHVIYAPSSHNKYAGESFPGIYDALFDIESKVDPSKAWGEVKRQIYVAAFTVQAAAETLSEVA
Put plainly: Determination of PSMA affinity (IC50), competition with ([125I]I-BA)KuE on LNCaP cells. The class given is binding. As to conditions: ([125I]I-BA)KuE 0.2 nM. The procedure: After removal of the culture medium, the cells were treated once with 500 μL of HBSS (Hank's balanced salt solution, Biochrom, Berlin, Germany, with addition of 1% bovine serum albumin (BSA)) and left 15 min on ice for equilibration in 200 μL HBSS (1% BSA). […] Quantification of bound and free radioligand was accomplished in a γ-counter.

The target in data set [4] is T1, Human Serum Albumin. Put plainly: HSA binding on Chiralpak HSA column. The data set is classed as in vitro ADME.
The conditions of data set [5]: cited from earlier work.
[6] abbreviates: pH 7.4, 68Ga-natF-L, n-octanol/PBS pH 7.4.
Where [7] appears, read: IC50, natF-L (uncomplexed), 1 h, 4° C., mean ± SD.
Setting [8] is: IC50, natGa-natF-L, 1 h, 4° C., mean ± SD.
Setting [9] is: 68Ga-natF-L, 0.5 nM, 37° C., mean ± SD.
The mark [10] stands for this setting: pH 7.4, 18F-L, n-octanol/PBS pH 7.4.
Where [11] appears, read: 18F-L, 0.5 nM, 37° C., mean ± SD.
[12] abbreviates: 177Lu-natF-L, 0.5 nM, 37° C., mean ± SD.
The mark [13] stands for this setting: n-octanol/PBS, pH 7.4, 177Lu-natF-L.
The mark [14] stands for this setting: natLu-natF-L, 1 h, 4° C., mean ± SD, read-out: IC50.

Where two headings read alike, the source gives them in different places.

T1 sequence (P02768 25-609): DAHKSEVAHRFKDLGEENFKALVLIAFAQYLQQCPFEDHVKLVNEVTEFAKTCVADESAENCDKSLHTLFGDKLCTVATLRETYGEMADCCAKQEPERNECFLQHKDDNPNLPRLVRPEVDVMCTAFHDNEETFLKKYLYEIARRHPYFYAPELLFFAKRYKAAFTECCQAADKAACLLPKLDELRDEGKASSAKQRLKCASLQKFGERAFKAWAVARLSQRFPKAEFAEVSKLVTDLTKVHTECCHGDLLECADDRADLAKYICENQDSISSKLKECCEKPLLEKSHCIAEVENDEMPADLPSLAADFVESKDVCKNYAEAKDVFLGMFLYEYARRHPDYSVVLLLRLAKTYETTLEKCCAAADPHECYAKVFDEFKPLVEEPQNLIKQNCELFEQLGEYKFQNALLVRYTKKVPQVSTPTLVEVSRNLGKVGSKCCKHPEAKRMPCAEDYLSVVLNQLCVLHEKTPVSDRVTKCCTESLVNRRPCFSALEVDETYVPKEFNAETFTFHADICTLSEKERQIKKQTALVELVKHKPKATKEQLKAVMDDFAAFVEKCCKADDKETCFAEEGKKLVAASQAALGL

Take `Nc1ccccc1` [Aniline]: the “Log K HSA” value on Human Serum Albumin [1] was −0.79. Also, at Human Serum Albumin [2], the “Lit. HSA %” value is listed as 14.06%.

Take `O=C(O)c1ccccc1` [Benzoic Acid]: at Human Serum Albumin [2], the “Lit. HSA %” value is on record as 34.27%.

For the compound `O=C(O)CC[C@H](NC(=O)N[C@@H](CCCCNC(=O)c1ccc(F)nc1)C(=O)O)C(=O)O` [DCFPyL, reference compound], the Internalization result in the data set with LNCaP cells (references) is “DCFPyL 118 ± 5%”.

As for `COc1ccc(Cl)cc1C(=O)NCCc1ccc(S(=O)(=O)NC(=O)NC2CCCCC2)cc1` [Glibenclamide], on Human Serum Albumin [1], the “Log K HSA” value was found to be 1.69. For the same compound, the “Lit. HSA %” value at Human Serum Albumin [2] is on record as 99.00%.

With `Oc1ccccc1` [Phenol], on Human Serum Albumin [1], the “Log K HSA” value was −0.59. Besides, the “Lit. HSA %” value on Human Serum Albumin [2] is recorded as 20.69%.

Turning to `CCCN(CCC)S(=O)(=O)c1ccc(C(=O)O)cc1` [Probenecid], the “Lit. HSA %” value on Human Serum Albumin [2] is recorded as 95.00%.

The logD is lipophilicity at a set pH, counting ionised and neutral species. What is called IC50 is the concentration that gives 50% inhibition. Regarding `CC(C)(C)[Si](F)(c1ccc(C(=O)NC[C@@H](NC(=O)CCC(C(=O)O)N2CCN(CC(=O)O)CCN(CC(=O)O)CCN(CC(=O)O)CC2)C(=O)N[C@H](CCCCNC(=O)CCCCCCC(=O)NCCCC[C@H](NC(=O)N[C@@H](CCC(=O)O)C(=O)O)C(=O)O)C(=O)O)cc1)C(C)(C)C` (some centres unmarked) [ligand 5, PSMA-SIFA1], the logD in data set [3] (setting [6]) was -2.75 ± 0.07. The figures for the IC50 at PSMA (setting [7]) and at PSMA (setting [8]) were 6.4 ± 0.2 nM and 7.3 ± 0.2 nM, respectively. The Internalization in the data set with LNCaP cells (setting [9]) was 33.0 ± 2.1%.

As for `CC(C)(C)[Si](F)(c1ccc(C(=O)NC[C@@H](C(=O)N[C@H](CCCCNC(=O)CCCCCCC(=O)NCCCC[C@H](NC(=O)N[C@@H](CCC(=O)O)C(=O)O)C(=O)O)C(=O)O)n2cc(CNC(=O)CCP(=O)(O)CN3CCN(CP(=O)(O)CCC(=O)O)CCN(CP(=O)(O)CCC(=O)O)CC3)nn2)cc1)C(C)(C)C` [ligand 6, PSMA-SIFA2], the logD in data set [3] (setting [6]) is -3 ± 0.09. Also, the figures for the IC50 on PSMA (setting [7]) and at PSMA (setting [8]) were 8.5 ± 1.7 nM and 10.8 ± 2.5 nM, respectively. Moreover, the Internalization in the data set with LNCaP cells (setting [9]) is recorded as 43.0 ± 3.4%.

`CC(C)(C)[Si](F)(c1ccc(C(=O)N[C@H](CNC(=O)CCC(C(=O)O)N2CCN(CC(=O)O)CCN(CC(=O)O)CCN(CC(=O)O)CC2)C(=O)N[C@H](CCCCNC(=O)CCC(=O)NCCC[C@@H](NC(=O)CC[C@H](NC(=O)N[C@@H](CCC(=O)O)C(=O)O)C(=O)O)C(=O)O)C(=O)O)cc1)C(C)(C)C` (some centres unmarked) [ligand 8, PSMA-SIFA4]: the logD in data set [3] (setting [10]) was -2.25 ± 0.07; in data set [3] (setting [6]), -2.59 ± 0.04; in data set [3] (pH 7.4, 177Lu-natF-L, n-octanol/PBS pH 7.4), -3.75 ± 0.06. For the same compound, the IC50 at PSMA (setting [7]) turned out to be 2.5 ± 0.2 nM; at PSMA (setting [8]), 3.8 ± 0.7 nM; at PSMA (IC50, natLu-natF-L, 1 h, 4° C., mean ± SD), 3 ± 0.2 nM. Further, the Internalization was 130.3 ± 5.5% in the data set with LNCaP cells (setting [11]), 98.2 ± 12.4% with LNCaP cells (setting [9]) and 165.9 ± 8.5% with LNCaP cells (setting [12]). For the same compound, the figures for the HSA binding on Human Serum Albumin [4] (natGa-natF-L) and at Human Serum Albumin [4] (natLu-natF-L) were 96.5% and 97.7%, respectively.

In the case of `CC(C)(C)[Si](F)(c1ccc(C(=O)NC[C@@H](C(=O)N[C@H](CCCCNC(=O)CCC(=O)NCCC[C@@H](NC(=O)CC[C@H](NC(=O)N[C@@H](CCC(=O)O)C(=O)O)C(=O)O)C(=O)O)C(=O)O)n2cc(CNC(=O)CCP(=O)(O)CN3CCN(CP(=O)(O)CCC(=O)O)CCN(CP(=O)(O)CCC(=O)O)CC3)nn2)cc1)C(C)(C)C` [ligand 9, PSMA-SIFA5], the values for the logD in data set [3] (setting [10]) and in data set [3] (setting [6]) were -2.23 ± 0.07 and -3.26 ± 0.06, respectively. In addition, the IC50 on PSMA (setting [7]) amounted to 4.3 ± 0.2 nM; on PSMA (setting [8]), 4.5 ± 0.3 nM. Moreover, the Internalization in the data set on LNCaP cells (setting [11]) was found to be 211.6 ± 5.3%; with LNCaP cells (setting [9]), 176.9 ± 11.7%. The compound further displayed an HSA binding on Human Serum Albumin [4] (natGa-natF-L) of 95.1%.

For `CC(C)(C)[Si](F)(c1ccc(C(=O)NCC(NC(=O)CN2CCN(CC(=O)O)CCN(CC(=O)O)CCN(CC(=O)O)CC2)C(=O)NC(CCCCNC(=O)CCC(=O)NCCCC(NC(=O)CC[C@H](NC(=O)N[C@@H](CCC(=O)O)C(=O)O)C(=O)O)C(=O)O)C(=O)O)cc1)C(C)(C)C` (some centres unmarked) [ligand 10], the logD in data set [3] (setting [13]) was -3.59 ± 0.05. Also, the IC50 on PSMA (setting [14]) is 2.8 ± 0.7 nM. In addition, the Internalization in the data set with LNCaP cells (setting [12]) worked out at 184.1 ± 16%. The compound further displayed an HSA binding on Human Serum Albumin [4] (natLu-natF-L) of 94.0%.

For `CC(C)(C)[Si](F)(c1ccc(C(=O)NC(CNC(=O)CN2CCN(CC(=O)O)CCN(CC(=O)O)CCN(CC(=O)O)CC2)C(=O)NC(CCCCNC(=O)CCC(=O)NCCCC(NC(=O)CC[C@H](NC(=O)N[C@@H](CCC(=O)O)C(=O)O)C(=O)O)C(=O)O)C(=O)O)cc1)C(C)(C)C` (some centres unmarked) [ligand 11], the logD in data set [3] (setting [13]) is -3.62 ± 0.06. Also, the IC50 on PSMA (setting [14]) came to 4.8 ± 0.7 nM. Further, in the data set on LNCaP cells (setting [12]), the Internalization was found to be 134.5 ± 18.5%. In addition, the HSA binding on Human Serum Albumin [4] (natLu-natF-L) is listed as 92.4%.

In the case of PSMA-1007 [reference compound], the IC50 at PSMA (references, read-out: IC50) was 4.2 nM. Also, the Internalization entry with LNCaP cells (references) was “PSMA-1007 118 ± 4%”.

For “SIFA-Asn(AcNH-β-Glc)-PEG-Tyr^3-octreotate”, in data set [5], the “log P(ow)” value is reported as 0.96.

Consider SIFA-Asn(AcNH-β-Glc)-Tyr^3-octreotate, for which, in data set [5], the “log P(ow)” value is 1.23.
